Experiment: xn = mol fraction of the nth substance listed

NCc1ccccc1 + CCCCCO
viscosity [mPa·s], 101.33 kPa
Conditions	x1 = 0.1	x1 = 0.2004	x1 = 0.2999	x1 = 0.4	x1 = 0.4997	x1 = 0.6	x1 = 0.7003	x1 = 0.8	x1 = 0.8999
298.15 K	3.257	3.009	2.798	2.599	2.419	2.25	2.088	1.943	1.808
303.15 K	2.82	2.607	2.436	2.25	2.124	1.971	1.842	1.72	1.616
308.15 K	2.406	2.283	2.133	1.979	1.841	1.734	1.624	1.526	1.454

C=CCc1ccc(O)c(OC)c1 + CCCCCOC(C)=O
298.15 K, 101 kPa
Conditions	viscosity [mPa·s]
x1 = 0.1	0.698
x1 = 0.162	1.11

O=[N+]([O-])c1cccc(O)c1 + CCCCCOC(C)=O
Conditions	viscosity [mPa·s]
298.15 K, 101 kPa, x1 = 0.5	1.449

NCc1ccccc1 + CCCCN
viscosity [mPa·s], 100 kPa
Conditions	x2 = 0.1	x2 = 0.2	x2 = 0.3	x2 = 0.4	x2 = 0.5	x2 = 0.6	x2 = 0.7	x2 = 0.8	x2 = 0.9
303.15 K	1.324	1.204	1.068	0.964	0.847	0.748	0.654	0.578	0.513
313.15 K	1.125	1.021	0.929	0.835	0.737	0.642	0.567	0.506	0.45
323.15 K	0.965	0.878	0.791	0.718	0.639	0.567	0.5	0.446	0.396

CC(C)NC(C)C + CCCCO
viscosity [mPa·s], 100 kPa
Conditions	298.15 K	303.15 K	308.15 K
x1 = 0.0499	2.316	2.061	1.793
x1 = 0.1095	2.056	1.834	1.609
x1 = 0.1542	1.88	1.688	1.483
x1 = 0.2062	1.699	1.529	1.353
x1 = 0.25	1.552	1.405	1.251
x1 = 0.2969	1.414	1.285	1.149
x1 = 0.4059	1.129	1.037	0.94
x1 = 0.5062	0.916	0.849	0.777
x1 = 0.6009	0.755	0.707	0.656
x1 = 0.7043	0.62	0.583	0.548
x1 = 0.8059	0.516	0.489	0.467
x1 = 0.8543	0.477	0.451	0.432
x1 = 0.8987	0.444	0.42	0.402
x1 = 0.9489	0.408	0.391	0.374

CCOC(=O)CC(C)=O + CCCCO
viscosity [mPa·s], 100 kPa
Conditions	x1 = 0.077	x1 = 0.1552	x1 = 0.2375	x1 = 0.324	x1 = 0.4191	x1 = 0.5209	x1 = 0.6261	x1 = 0.74	x1 = 0.861
293.15 K	2.378	2.032	1.795	1.639	1.567	1.564	1.56	1.565	1.603
298.15 K	2.063	1.788	1.629	1.525	1.466	1.435	1.425	1.427	1.46

OCCO + CCCCO
298 K, 101.33 kPa
Conditions	viscosity [mPa·s]
x1 = 0.1527	3.18
x1 = 0.5229	6.05
x1 = 0.7115	8.75
x1 = 0.868	12.33

CC(C)NC(C)C + CCCCOCCO
viscosity [mPa·s], 100 kPa
Conditions	298.15 K	303.15 K	308.15 K
x2 = 0.0501	0.42	0.4	0.38
x2 = 0.1005	0.47	0.44	0.42
x2 = 0.15	0.54	0.5	0.47
x2 = 0.2024	0.63	0.58	0.54
x2 = 0.2999	0.8	0.73	0.68
x2 = 0.3999	1.06	0.95	0.89
x2 = 0.5001	1.38	1.23	1.14
x2 = 0.6002	1.77	1.56	1.42
x2 = 0.6997	2.14	1.85	1.68
x2 = 0.7998	2.48	2.14	1.95
x2 = 0.8999	2.74	2.39	2.14
x2 = 0.9499	2.82	2.47	2.21

CCC(=O)c1ccccc1 + CCCCOCCO
viscosity [mPa·s], 101 kPa
Conditions	x1 = 0.0996	x1 = 0.1994	x1 = 0.2992	x1 = 0.399	x1 = 0.499	x1 = 0.599	x1 = 0.6992	x1 = 0.7994	x1 = 0.8996
303.15 K	2.333	2.24	2.148	2.056	1.964	1.873	1.782	1.692	1.602
308.15 K	2.192	2.109	2.027	1.946	1.865	1.784	1.704	1.624	1.545
313.15 K	2.044	1.972	1.901	1.831	1.762	1.692	1.622	1.554	1.486
318.15 K	1.863	1.805	1.749	1.694	1.639	1.584	1.53	1.476	1.424

CC(C)(C)C(=O)O + CCCN(CCC)CCC
viscosity [mPa·s], 101 kPa
Conditions	293.15 K	298.15 K	303.15 K	308.15 K	313.15 K	318.15 K	323.15 K
x1 = 0.1	1.239	1.113	1.09	1.007	0.961	–	–
x1 = 0.2	1.593	1.416	1.371	1.265	1.163	1.088	1.017
x1 = 0.3	1.998	1.897	1.631	1.619	1.474	1.375	1.285
x1 = 0.4	3.304	2.795	2.479	2.325	2.14	1.94	1.79
x1 = 0.5	5.525	4.857	3.946	3.56	3.069	2.62	2.72
x1 = 0.6	14.34	11.43	9.15	7.47	6.17	5	4.15
x1 = 0.7	41.75	29.64	21.72	16.62	12.77	10.24	8.33
x1 = 0.725	62.84	43.6	31.12	22.68	17.62	14.04	11.21
x1 = 0.75	69.2	52.11	39.98	28.77	21.17	17.53	13.24
x1 = 0.8	54.33	40.03	28.38	21.17	16.84	13.12	10.81
x1 = 0.9	15.35	11.96	9.46	7.88	6.57	5.51	4.73

CCOC(=O)CC(C)=O + CCCO
viscosity [mPa·s], 100 kPa
Conditions	x1 = 0.0644	x1 = 0.1297	x1 = 0.2035	x1 = 0.2808	x1 = 0.3716	x1 = 0.4706	x1 = 0.5808	x1 = 0.7083	x1 = 0.8379
293.15 K	1.907	1.663	1.448	1.344	1.321	1.346	1.395	1.46	1.563
298.15 K	1.675	1.515	1.404	1.32	1.279	1.281	1.295	1.336	1.413

OCCO + CCCO
Conditions	viscosity [mPa·s]
298.15 K, 101 kPa, x1 = 0.442	4.972
298.15 K, 101.33 kPa, x1 = 0.0111	2.005
298.15 K, 101.33 kPa, x1 = 0.0207	2.055
298.15 K, 101.33 kPa, x1 = 0.0321	2.115
298.15 K, 101.33 kPa, x1 = 0.0482	2.198
298.15 K, 101.33 kPa, x1 = 0.0722	2.331
298.15 K, 101.33 kPa, x1 = 0.0979	2.467
298.15 K, 101.33 kPa, x1 = 0.1442	2.723
298.15 K, 101.33 kPa, x1 = 0.1912	3.012
298.15 K, 101.33 kPa, x1 = 0.2372	3.32
298.15 K, 101.33 kPa, x1 = 0.2938	3.751
298.15 K, 101.33 kPa, x1 = 0.345	4.192
298.15 K, 101.33 kPa, x1 = 0.3886	4.617
298.15 K, 101.33 kPa, x1 = 0.4295	5.053
298.15 K, 101.33 kPa, x1 = 0.4681	5.512
298.15 K, 101.33 kPa, x1 = 0.5096	6.052
298.15 K, 101.33 kPa, x1 = 0.5452	6.565
298.15 K, 101.33 kPa, x1 = 0.5843	7.175
298.15 K, 101.33 kPa, x1 = 0.6533	8.397
298.15 K, 101.33 kPa, x1 = 0.6993	9.322
298.15 K, 101.33 kPa, x1 = 0.7522	10.5
298.15 K, 101.33 kPa, x1 = 0.7998	11.68
298.15 K, 101.33 kPa, x1 = 0.84	12.75
298.15 K, 101.33 kPa, x1 = 0.8875	14.13
298.15 K, 101.33 kPa, x1 = 0.918	15.08
298.15 K, 101.33 kPa, x1 = 0.9609	16.5
298.15 K, 101.33 kPa, x2 = 0.0188	17.2
308.15 K, 101 kPa, x1 = 0.442	3.67
318.15 K, 101 kPa, x1 = 0.442	2.755

C=CCN=C=S + CCN(CC)c1ccccc1
303.15 K, 101 kPa
Conditions	viscosity [mPa·s]
x1 = 0.25	1.248
x1 = 0.5	1.007
x1 = 0.7	0.857
x1 = 0.75	0.822
x1 = 0.8	0.785

C=CCN=C=S + CCNc1ccccc1
viscosity [mPa·s], 101 kPa
Conditions	x1 = 0.2366	x1 = 0.4021	x1 = 0.4673	x1 = 0.5	x1 = 0.5346	x1 = 0.6032	x1 = 0.7385
298.15 K	5.955	18.81	37.55	48.24	29.45	7.747	2.277
323.15 K	2.83	6.28	9.92	11.98	8.399	3.234	1.313
